Measurements published in PubChem BioAssay (NCI).
Where “and” joins values, the source holds several entries; their conditions need not be identical. Identical values can stand only once.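 Assay format: 96-well plates, 48-hour exposure. GI50 = concentration required for 50% inhibition of growth. TGI marks complete inhibition of growth.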

How the values were obtained:
Assay in all cases: NCI anticancer screen, dose series, 48 h
HT29 colon = system: HT29 colon
NCI/ADR-RES ovarian = system: NCI/ADR-RES ovarian
SW-620 colon = system: SW-620 colon
LOX IMVI melanoma = system: LOX IMVI melanoma
M14 melanoma = system: M14 melanoma
A549 NSCLC = system: A549 NSCLC
KM12 colon = system: KM12 colon
U251 CNS = system: U251 CNS
ACHN renal = system: ACHN renal
RPMI-8226 leukemia = system: RPMI-8226 leukemia

Row | SMILES | GI50 (HT29 colon) | TGI (HT29 colon) [µM] | GI50 (NCI/ADR-RES ovarian) | TGI (NCI/ADR-RES ovarian) [µM] | GI50 (SW-620 colon) | TGI (SW-620 colon) [µM] | GI50 (LOX IMVI melanoma) | TGI (LOX IMVI melanoma) [µM] | GI50 (M14 melanoma) | TGI (M14 melanoma) [µM] | GI50 (A549 NSCLC) | TGI (A549 NSCLC) [µM] | GI50 (KM12 colon) | TGI (KM12 colon) [µM] | GI50 (U251 CNS) | TGI (U251 CNS) [µM] | GI50 (ACHN renal) | TGI (ACHN renal) [µM] | GI50 (RPMI-8226 leukemia) | TGI (RPMI-8226 leukemia)
1 | S=C(Nc1ccc(Cl)cc1)Nc1ccc(-c2nc3ccccc3[nH]2)cc1 | 4.06 µM | 14.9 | 17.2 µM | > 57.4 | 22.4 µM | > 58.8 | 5.05 µM | 11.7 | 7.54 µM | > 42 | 14.3 µM | > 54.3 | 4.45 µM | > 62 | 5.06 µM | 18.1 | 7.08 µM | 31.2 | 2.23 µM | > 21.2 µM
2 | CC(C)(O)C1OCC(C2CCC3(C)C4=CCC5C(C)(C)C(O)CCC5(C)C4CCC23C)CC1O (stereo not given) | – | 25.7 | – | 27 | – | 28.5 | – | 42.7 | – | > 100 | – | 31.8 | – | 27 | – | 27.5 | – | 28.6 | – | 77.8 µM
3 | Cc1ccc2c(N)c(C(=O)N[C@H]3CCc4cc(N5CC6CCC(C5)N6)ccc4C3)sc2n1 | 0.257 µM | 3.22 | 0.798 µM | 2.76 | 0.293 µM | 2.13 | 0.0761 µM | 0.405 | 0.307 µM | 1.82 | 0.207 µM | 2.03 | 0.693 µM | 3.33 | 0.311 µM | 2.15 | 0.158 µM | 2.01 | 0.764 µM | 3.42 µM
4 | O=C1C(=O)c2ccccc2C(O)=C1C(CCc1ccccc1)C1=C(O)c2ccccc2C(=O)C1=O | – | > 100 | – | > 100 | – | > 100 | – | > 100 | – | > 100 | – | > 100 | – | > 100 | – | > 100 | – | > 100 | – | > 100 µM
5 | COc1nc(C)cc2c(=O)n(-c3ccccc3)n(CCCN3CCN(c4ccc(Cl)cc4)CC3)c(=O)c12 | > 50 µM | > 50 | > 50 µM | > 50 | 43.8 µM | > 50 | > 50 µM | > 50 | 46.6 µM | > 50 | 21.2 µM | > 50 | > 50 µM | > 50 | 32.1 µM | > 50 | > 50 µM | > 50 | > 50 µM | > 50 µM
6 | O=C(C(Br)Br)C(Br)C(Br)c1ccccc1 (stereo not given) | 2.5 µM | 5.39 | 5.23 µM | 72.4 | 2.03 µM | 4.19 | 1.49 µM | 3.61 | 2.5 µM | 6.33 | 20.4 µM | 52.4 | 14.2 µM | 28.5 | 2.96 µM | 10.8 | 1.68 µM | 3.18 | 1.54 µM | 4.36 µM
7 | Nc1ccccc1C#C/C=C\C#Cc1ccc(Cl)cc1Cl | 15.1 µM | > 100 | 4.42 µM | 18.8 | 34.8 µM | > 100 | 11 µM | 26.5 | 14.7 µM | 34.4 | 16 µM | 44.2 | 2.72 µM | 14.4 | 15.3 µM | 34 | 20.9 µM | 41.7 | 0.89 µM | 30.5 µM
8 | CCSc1nc(N=Cc2cccs2)c2cn[nH]c2n1 | 16.7 µM | 80.9 | 15.7 µM | 61.4 | 19.7 µM | > 100 | 7.89 µM | > 100 | 14.8 µM | 28 | 29.2 µM | > 100 | 3.31 µM | 16.1 | 69.4 µM | > 100 | 16.2 µM | > 100 | 3.19 µM | > 100 µM
9 | O=C1c2ccccc2-c2c1c1ccccc1c(=O)n2CCCN1CCOCC1 | > 100 µM | > 100 | 18.2 µM | > 100 | 20.2 µM | > 100 | 8.87 µM | 62.1 | 99.2 µM | > 100 | 26.2 µM | > 100 | > 100 µM | > 100 | 3.67 µM | 14.9 | 10.7 µM | 59.5 | > 44.4 µM | > 100 µM
10 | COc1c(O)ccc2c1CN1CCc3cc4c(cc3C1C2)OCO4 (stereo not given) | – | > 100 | – | 90.2 | – | > 100 | – | > 77.8 | – | > 100 | – | > 100 | – | > 100 | – | > 100 | – | > 79 | – | > 100 µM
11 | C/C=C(\C)C(=O)O[C@H]1C=CC(=O)O[C@H]1CNC(=O)[C@H](C)O | 18.9 µM | 42.6 | 26.2 µM | 81.4 | 14.6 µM | 28.6 | 15.9 µM | 30.4 | 18.6 µM | 41 | 31.1 µM | > 100 | 17 µM | 32 | 15.7 µM | 29.9 | 15.7 µM | 29.9 | 21.3 µM | 45.7 µM
12 | COc1ccc(-c2nc(-c3ccccc3)c(-c3ccccc3)n2C2CC2)cc1OC1CCCC1 | 85.1 µM | > 165 | 58.6 µM | > 165 | 53.7 µM | > 165 | 15.1 µM | > 165 | 163 µM | > 165 | 48.7 µM | > 165 | 50.9 µM | > 165 | 30.2 µM | > 165 | 58 µM | > 165 | 48.8 µM | > 165 µM
13 | O=C(Oc1ccc(CCl)cc1)c1ccccc1 | 0.149 µM | 0.289 | 0.2 µM | 0.472 | 0.103 µM | 0.247 | 0.158 µM | 0.305 | 0.125 µM | 0.348 | 1.16 µM | 2.42 | 0.166 µM | 0.323 | 0.138 µM | 0.268 | 0.119 µM | 0.246 | 0.0615 µM | 0.288 µM
14 | CC1(C)N=C(N)N=C(N)N1c1cc(Cl)ccc1Cl | 62.5 µM | > 100 | > 100 µM | > 100 | 74.5 µM | > 100 | > 100 µM | > 100 | > 100 µM | > 100 | > 100 µM | > 100 | > 100 µM | > 100 | > 100 µM | > 100 | > 100 µM | > 100 | > 100 µM | > 100 µM
15 | CN(C)CCCNC(=O)c1cc(NC(=O)c2cc(NC(=O)c3cc(NC(=O)CCc4c[nH]c5ccccc45)cn3C)cn2C)cn1C | 30.7 µM | > 100 | > 100 µM | > 100 | > 100 µM | > 100 | > 100 µM | > 100 | > 100 µM | > 100 | > 100 µM | > 100 | > 100 µM | > 100 | > 100 µM | > 100 | > 100 µM | > 100 | > 100 µM | > 100 µM
16 | CCOC(=O)Oc1c(OC)cc(C(=O)O[C@@H]2C[C@@H]3CN4CCc5c([nH]c6cc(OC)ccc56)[C@H]4C[C@@H]3[C@H](C(=O)OC)[C@H]2OC)cc1OC | 2.32 µM | 5.92 | 4.37 µM | 23.3 | 3.67 µM | 19.4 | 2.91 µM | 14.7 | 4.44 µM | 18.9 | 3.41 µM | 14.2 | 4.7 µM | 17.7 | 4.24 µM | 15.1 | 4.16 µM | 21.7 | 2.23 µM | 10.8 µM
17 | O=[N+]([O-])/C=C/c1c[nH]c2ccccc12 | 19.5 µM | 38.8 | 18.4 µM | 40 | 15.2 µM | 57.5 | 15.9 µM | 30.2 | 2.35 µM | 6.43 | 14 µM | 31.7 | 14.6 µM | 31 | 12.8 µM | 26.7 | 17.1 µM | 32.3 | 1.83 µM | 7.7 µM
18 | COc1ccc(-c2cn[nH]c2-c2cc(OC)c(OC)c(OC)c2)cc1N | < 0.01 µM and 0.0339 µM | > 100 | < 0.01 µM and 0.0379 µM | > 100 | < 0.01 µM and 0.0397 µM | > 100 | < 0.01 µM and 0.0436 µM | > 100 | < 0.01 µM and 0.0247 µM | > 100 | < 0.01 µM and 0.0425 µM | > 100 | < 0.01 µM and 0.026 µM | > 100 | < 0.01 µM and 0.0404 µM | > 100 | < 0.01 µM and 0.044 µM | > 100 | < 0.01 µM and 0.0535 µM | 30.8 µM and 54.1 µM
19 | O=C(NOCC1CC1)c1ccc(F)c(F)c1Nc1ccc(I)cc1Cl | 0.112 µM | 11.1 | 2.85 µM | > 47.9 | 0.141 µM | > 39.3 | 0.727 µM | 13.2 | 0.0546 µM | 0.505 | 1.41 µM | 13.2 | 0.649 µM | 7.34 | 1.55 µM | 12.2 | 1.13 µM | > 39 | 1.97 µM | 9.48 µM
